Measured values as given in patent US20160021873A1, “STEM CELL PRESERVATION MEDIUM, STEM CELL PRESERVATION METHOD, AND STEM CELL PRESERVATION SYSTEM” (KYOKUTO PHARMACEUTICAL INDUSTRIAL CO., LTD., priority 2012, published 2016).

System: human iPS cells
Assay: survival rate on ROCK inhibitor (+) versus (-) cultivation after thawing
Assay type: cell-based
Details: 10 μM Y-27632 for two days then three days without; rapid thawing with warm culture medium; ROCK inhibitor (-) cultivation about 30%
Description: Cultivation and freezing in the stem cell preservation method were carried out by procedures similar to those of Embodiment 2. Regarding thawing, after a warm culture medium was used to conduct rapid thawing, difference of survival rate was measured depending on whether the ROCK inhibitor 10 μM Y-27632 was added or not. Where the inhibitor was added, in the presence of Y-27632, cultivation was performed for two days, thereafter, cultivation was performed additionally for three days in a culture medium free of Y-27632. On the other hand, where no inhibitor was added, cultivation was performed for five days in a normal culture medium. On both the cultivation, a survival rate was measured according to the method described in Embodiment 2.

C[C@@H](N)[C@H]1CC[C@H](C(=O)Nc2ccncc2)CC1 [ROCK inhibitor, Y-27632]
survival rate: about 120%
